Results on three compounds are retold here after patent USH1453H, “N-acetyl-D-glucosamine deacetylase and a process for preparing the same” (priority 1993, dated 1995).

The target in series [1] is N-acetyl-D-glucosamine deacetylase (Vibrio cholerae, UniProt O32445). The series is described as follows: Substrate specificity of the enzyme. It is filed as biochemical, Vibrio cholerae non-01 (IFO 15429). The following applies: substrate 0.2%, 37° C., pH 7.8, one hour.
A short description of series [2]: Determination of the enzymatic activity (D-glucosamine formed, indole-HCl colorimetry). It is filed as biochemical. The following applies: 37° C.; for specific activity: pH 7.8. As for the experimental part: An enzyme solution (0.1 ml) is added to 0.3 ml of 100 mM phosphate buffer (pH 7.8) containing 0.1 ml of 1% N-acetyl-D-glucosamine as a substrate, and the resultant mixture is incubated at 37° C. for 30 minutes. The amount of D-glucosamine formed is determined colorimetrically using indole-HCl according to the method of Z. Dische and E. Borenfreund [J. Biol. Chem., 184:517 (1950)]. One unit of the enzyme is defined as the amount of the enzyme which is capable of producing 1 μmol D-glucosaminefrom N-acetyl-D-glucosamine per minute at 37° C.

Series [3] is described as follows: Stable pH of the enzyme. The following applies: not less than 50% of initial activity retained, determined at 37° C. after incubation at 45° C. for 30 minutes. It is filed as physicochemical. The procedure: The stable pH wherein not less than 50% of the initial activity of the enzyme is retained, as determined at 37° C. after incubation in a given buffer at 45° C. for 30 minutes, varies depending on the origin of the microorganism used to produce the enzyme, but usually ranges from about 3.0 to 9.0. For example, the stable pH of the enzyme derived from Vibrio sp. is in the range of about 6.0-9.0.

A short description of series [4]: Optimal pH of the enzyme. It counts as biochemical. The following applies: at 37° C.; indole-HCl method at pH 5.6-10.8. As for the experimental part: The optimal pH of the enzyme of the present invention varies widely depending on the origin of the microorganism used to produce the enzyme, but usually in the range of about 4.0-9.0. For example, the optimal pH of the enzyme derived from Vibrio sp. is in the range of 7.8-8.2 as determined colorimetrically according to indole-HCl method at pH 5.6-10.8. The buffer solution used at pH 5.6-6.0 is 100 mM CH3 COOH--CH3 COONa, at pH 6.0-9.0, 100 mM […] -Na2 HPO4 is used, and at pH 9.6-10.8, 200 mM Na2 HPO4 -NaOH is used.

In series [5] the test system is Mucor sp. The following applies: method using a microorganism belonging to Mucor sp.; cited from earlier work.

Sequence of N-acetyl-D-glucosamine deacetylase (O32445 whole entry): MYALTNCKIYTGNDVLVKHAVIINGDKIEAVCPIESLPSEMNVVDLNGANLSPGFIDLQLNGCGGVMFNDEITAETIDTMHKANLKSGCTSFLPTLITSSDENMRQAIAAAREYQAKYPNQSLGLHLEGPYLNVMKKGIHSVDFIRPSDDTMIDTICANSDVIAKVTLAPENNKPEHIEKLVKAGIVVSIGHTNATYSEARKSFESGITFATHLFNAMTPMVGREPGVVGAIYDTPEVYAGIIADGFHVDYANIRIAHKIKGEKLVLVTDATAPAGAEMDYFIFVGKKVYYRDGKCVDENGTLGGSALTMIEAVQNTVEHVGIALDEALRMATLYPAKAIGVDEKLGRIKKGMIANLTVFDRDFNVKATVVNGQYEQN

Consider `CC(=O)N[C@H]1C(O)O[C@H](CO)[C@@H](O)[C@@H]1O` (stereo partly drawn) [GlcNAc, N-acetyl-D-glucosamine], for which, in series [1], the “Enzymatic Activity” value came out at 1.22 Unit/mg and the “formation of D-glucosamine” value is listed as “can be observed”.
Take N-acetyl-D-glucosamine deacetylase: the specific activity in series [2] (listed as enzyme) is reported as 1.22 unit/mg protein; in series [2] (listed as purified enzyme), 1.22 U/mg protein. Further, the “Spec. Act.” value in series [2] (Table 1, per purification step, pH 7.8, 30 minutes) is 1.22 Unit/mg. The “Stable pH” value in series [3] is 6.0-9.0. In series [4], the “Optimal pH” value is listed as 7.8-8.2.
For the compound (GlcNAc)5, in series [5], the “deacetylated to the extent of” value is 12-14%.
